Reference: article PMC7614683, “A small molecule PI3Kα activator for cardioprotection and neuroregeneration” (Nature, 2023)
Like-named read-outs stand apart in the source and are kept apart here.

Experiments:
Assay in all cases: SelectScreen Z-LYTE kinase activity assay (SI Table 6)
Format in all cases: biochemical
[1] = target: T1, protein kinases of the Z-LYTE panel (Homo sapiens, UniProt Q8IW41)
T1 sequence (Q8IW41 1-473): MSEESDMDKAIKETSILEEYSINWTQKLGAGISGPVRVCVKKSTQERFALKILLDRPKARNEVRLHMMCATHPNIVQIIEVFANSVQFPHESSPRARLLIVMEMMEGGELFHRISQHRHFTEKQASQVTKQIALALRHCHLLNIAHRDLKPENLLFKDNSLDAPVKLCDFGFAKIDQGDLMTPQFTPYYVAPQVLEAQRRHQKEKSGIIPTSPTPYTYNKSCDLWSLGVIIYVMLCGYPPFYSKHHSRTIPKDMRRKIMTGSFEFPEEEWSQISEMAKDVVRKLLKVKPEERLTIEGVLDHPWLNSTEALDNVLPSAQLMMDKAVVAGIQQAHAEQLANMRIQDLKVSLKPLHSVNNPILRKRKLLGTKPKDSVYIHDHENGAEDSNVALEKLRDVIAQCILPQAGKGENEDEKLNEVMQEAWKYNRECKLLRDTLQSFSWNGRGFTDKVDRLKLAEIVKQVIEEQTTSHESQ
Description: (§1) 133 protein kinases and 7 lipid kinases were counterscreened, with 1938 used at 1 μM, using the Adapta, Lantha and Z-LYTE assays (SelectScreen Kinase Profiling Service; Thermofisher – experimental details of these assays can be found here: https://www.thermofisher.com/uk/en/home/industrial/pharma-biopharma/drug-discovery-development/target-and-lead-identification-and-validation/kinasebiology/kinase-activity-assays.html. The tree represention in KinMap[59] generated courtesy of Cell Signaling Technology, Inc. (www.cellsignal.com). mTORC1 (mTOR/RAPTOR/LST8) protein complex and ATM kinase and substrates were produced as previously described[57],[60]. Screening of 1938 was conducted using SuperSep Phos-Tag 50 μmol/l 100 x 100 x 6.6 mm 17-well (192-18001/199-18011) gels. For ATM assays, 100 nM ATM was incubated for 30 min at 30°C with 5 μM GST-p53 and 1 mM ATP, in the absence or presence of 200 μM 1938 in ATM Kinase Buffer (50 mM HEPES pH 7.5, 100 mM NaCl, 10% glycerol, 2 mM […], 5 mM MgCl2). As a positive control for ATM activation, the same reaction was carried out with 100 nM ATM/5 μM GST-p53/1 mM ATP in the presence of 100 nM Mre11-Rad50-Nbs1 (MRN) complex, a known activator of ATM[61]. For mTORC1 assays, 50 nM mTORC1 complex (mTOR/LST8/RAPTOR) was incubated for 3 h at 30°C with 15 μM 4E-BP1, 10 mM MgCl2 and 250 μM ATP, in the absence or presence of 200 μM 1938. As a ‘positive’ control, a higher concentration (150 nM) of mTORC1 complex (mTOR/LST8/RAPTOR) was incubated for 3 h at 30°C with 15 μM 4E-BP1, 10 mM MgCl2 and 250 μM ATP. Kinase reactions were quenched by addition of SDS-PAGE Loading Buffer (as per manufacturer’s instructions) and freezing at -20°C before being run on the Phos-tag gels at 150 V for 90 min. Gels were then stained using InstantBlue™ Coomassie, and quantified using BioRad Image Lab Software. Kinase assays were carried out in triplicate.

[2] = target: protein kinases of the Z-LYTE panel (Homo sapiens, UniProt P22455)
protein kinases of the Z-LYTE panel (Homo sapiens, UniProt P22455), sequence (P22455 22-802): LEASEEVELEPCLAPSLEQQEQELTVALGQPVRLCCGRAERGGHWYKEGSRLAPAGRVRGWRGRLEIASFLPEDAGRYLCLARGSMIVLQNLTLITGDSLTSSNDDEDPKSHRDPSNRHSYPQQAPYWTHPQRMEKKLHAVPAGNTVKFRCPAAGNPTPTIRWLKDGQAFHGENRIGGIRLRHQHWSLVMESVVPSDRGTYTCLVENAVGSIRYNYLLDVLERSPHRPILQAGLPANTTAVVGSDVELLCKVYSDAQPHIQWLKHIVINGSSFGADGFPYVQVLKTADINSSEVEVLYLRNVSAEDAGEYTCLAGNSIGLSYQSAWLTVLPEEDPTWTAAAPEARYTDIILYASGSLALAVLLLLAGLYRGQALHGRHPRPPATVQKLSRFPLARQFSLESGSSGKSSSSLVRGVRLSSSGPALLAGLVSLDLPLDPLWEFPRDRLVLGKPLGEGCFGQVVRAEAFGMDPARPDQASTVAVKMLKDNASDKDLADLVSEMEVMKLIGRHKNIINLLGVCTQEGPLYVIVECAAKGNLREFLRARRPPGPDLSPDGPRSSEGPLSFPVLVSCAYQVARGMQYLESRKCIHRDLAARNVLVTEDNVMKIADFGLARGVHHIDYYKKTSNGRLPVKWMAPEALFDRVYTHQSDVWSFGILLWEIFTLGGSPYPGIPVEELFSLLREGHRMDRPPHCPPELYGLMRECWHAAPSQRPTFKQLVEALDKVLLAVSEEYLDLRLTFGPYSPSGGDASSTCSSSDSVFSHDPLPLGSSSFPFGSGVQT
Description: as §1

[3] = target: protein kinases of the Z-LYTE panel (Homo sapiens, UniProt P35968)
protein kinases of the Z-LYTE panel (Homo sapiens, UniProt P35968), sequence (P35968 20-1356): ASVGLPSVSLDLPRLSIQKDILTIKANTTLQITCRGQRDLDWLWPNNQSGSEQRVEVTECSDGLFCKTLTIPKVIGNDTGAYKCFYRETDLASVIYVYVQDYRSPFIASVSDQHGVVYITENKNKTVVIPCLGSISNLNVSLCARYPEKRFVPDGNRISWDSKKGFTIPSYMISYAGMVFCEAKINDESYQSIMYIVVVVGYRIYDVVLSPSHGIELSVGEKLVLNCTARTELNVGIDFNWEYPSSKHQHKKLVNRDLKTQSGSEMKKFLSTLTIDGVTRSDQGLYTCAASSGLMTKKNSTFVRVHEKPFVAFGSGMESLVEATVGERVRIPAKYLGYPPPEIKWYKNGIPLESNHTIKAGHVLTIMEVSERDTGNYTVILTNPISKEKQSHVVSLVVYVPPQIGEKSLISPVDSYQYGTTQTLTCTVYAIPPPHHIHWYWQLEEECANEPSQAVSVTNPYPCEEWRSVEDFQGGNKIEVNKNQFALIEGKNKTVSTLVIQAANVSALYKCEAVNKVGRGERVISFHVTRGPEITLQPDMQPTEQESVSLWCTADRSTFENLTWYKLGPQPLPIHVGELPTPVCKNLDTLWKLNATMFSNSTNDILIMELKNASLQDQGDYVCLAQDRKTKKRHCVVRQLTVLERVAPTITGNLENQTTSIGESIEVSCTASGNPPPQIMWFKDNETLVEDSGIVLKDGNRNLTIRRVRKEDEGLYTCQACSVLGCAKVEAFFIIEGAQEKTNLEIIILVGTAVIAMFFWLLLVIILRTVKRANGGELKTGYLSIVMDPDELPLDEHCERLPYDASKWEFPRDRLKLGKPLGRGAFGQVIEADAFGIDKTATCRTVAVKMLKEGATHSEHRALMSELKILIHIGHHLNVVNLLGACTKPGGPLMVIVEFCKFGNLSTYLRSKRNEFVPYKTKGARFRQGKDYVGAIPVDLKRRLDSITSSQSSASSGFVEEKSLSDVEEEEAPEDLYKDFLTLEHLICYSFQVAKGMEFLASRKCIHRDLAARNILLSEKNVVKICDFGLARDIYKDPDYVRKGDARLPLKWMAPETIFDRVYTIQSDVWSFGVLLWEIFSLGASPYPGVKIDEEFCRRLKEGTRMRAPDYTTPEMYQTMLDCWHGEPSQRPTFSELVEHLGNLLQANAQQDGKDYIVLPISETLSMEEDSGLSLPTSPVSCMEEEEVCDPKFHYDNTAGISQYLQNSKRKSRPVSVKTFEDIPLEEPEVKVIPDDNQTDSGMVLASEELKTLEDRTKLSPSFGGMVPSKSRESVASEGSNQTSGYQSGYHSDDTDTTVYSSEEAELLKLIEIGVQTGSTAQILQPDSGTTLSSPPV
Description: as §1

[4] = target: protein kinases of the Z-LYTE panel (Homo sapiens, UniProt P15056); settings: BRAF, 1000 nM, [ATP] 100 μM
Description: as §1

[5] = target: protein kinases of the Z-LYTE panel (Homo sapiens, UniProt P51451)
protein kinases of the Z-LYTE panel (Homo sapiens, UniProt P51451), sequence (P51451 whole entry): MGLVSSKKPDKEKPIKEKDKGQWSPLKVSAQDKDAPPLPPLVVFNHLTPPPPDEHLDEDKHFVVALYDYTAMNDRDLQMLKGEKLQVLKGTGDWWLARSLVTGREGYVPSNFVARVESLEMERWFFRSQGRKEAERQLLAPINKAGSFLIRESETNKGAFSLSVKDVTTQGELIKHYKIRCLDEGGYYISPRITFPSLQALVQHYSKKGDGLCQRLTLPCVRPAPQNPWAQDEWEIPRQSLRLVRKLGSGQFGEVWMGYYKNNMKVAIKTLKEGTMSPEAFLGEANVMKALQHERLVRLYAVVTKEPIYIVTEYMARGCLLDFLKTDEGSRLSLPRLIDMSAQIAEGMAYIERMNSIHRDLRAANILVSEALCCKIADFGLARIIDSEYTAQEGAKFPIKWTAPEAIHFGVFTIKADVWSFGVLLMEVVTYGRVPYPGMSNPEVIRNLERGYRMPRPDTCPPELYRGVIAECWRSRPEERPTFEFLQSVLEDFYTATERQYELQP
Description: as §1

[6] = target: protein kinases of the Z-LYTE panel (Homo sapiens, UniProt Q15418)
Description: as §1

[7] = target: protein kinases of the Z-LYTE panel (Homo sapiens, UniProt P28482)
protein kinases of the Z-LYTE panel (Homo sapiens, UniProt P28482), sequence (P28482 whole entry): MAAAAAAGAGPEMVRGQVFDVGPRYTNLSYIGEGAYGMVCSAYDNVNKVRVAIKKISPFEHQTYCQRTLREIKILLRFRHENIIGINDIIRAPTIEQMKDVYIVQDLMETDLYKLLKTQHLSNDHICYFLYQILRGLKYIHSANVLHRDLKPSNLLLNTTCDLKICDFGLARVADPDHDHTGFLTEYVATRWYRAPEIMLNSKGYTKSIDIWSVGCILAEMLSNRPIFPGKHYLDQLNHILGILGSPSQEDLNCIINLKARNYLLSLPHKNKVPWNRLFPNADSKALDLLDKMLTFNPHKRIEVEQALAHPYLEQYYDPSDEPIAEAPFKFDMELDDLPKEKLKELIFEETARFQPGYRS
Description: as §1

[8] = target: protein kinases of the Z-LYTE panel (Homo sapiens, UniProt P07947)
Description: as §1

[9] = target: protein kinases of the Z-LYTE panel (Homo sapiens, UniProt Q02750); settings: MAP2K1 (MEK1), 1000 nM, [ATP] 100 μM
protein kinases of the Z-LYTE panel (Homo sapiens, UniProt Q02750), sequence (Q02750 whole entry): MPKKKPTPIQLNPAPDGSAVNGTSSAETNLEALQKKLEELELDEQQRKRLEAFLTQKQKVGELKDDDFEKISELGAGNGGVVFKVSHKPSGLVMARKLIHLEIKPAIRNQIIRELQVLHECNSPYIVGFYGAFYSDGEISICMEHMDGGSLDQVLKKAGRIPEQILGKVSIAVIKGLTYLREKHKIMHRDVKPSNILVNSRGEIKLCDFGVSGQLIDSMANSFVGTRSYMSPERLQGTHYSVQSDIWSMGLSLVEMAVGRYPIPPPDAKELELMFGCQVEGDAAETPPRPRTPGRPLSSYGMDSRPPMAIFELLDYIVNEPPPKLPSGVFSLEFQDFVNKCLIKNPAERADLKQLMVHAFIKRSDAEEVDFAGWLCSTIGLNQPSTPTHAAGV
Description: as §1

[10] = target: protein kinases of the Z-LYTE panel (Homo sapiens, UniProt P53350)
Description: as §1

[11] = target: protein kinases of the Z-LYTE panel (Homo sapiens, UniProt P11362)
Description: as §1

[12] = target: protein kinases of the Z-LYTE panel (Homo sapiens, UniProt P45983); settings: MAPK8 (JNK1), 1000 nM, [ATP] 100 μM
protein kinases of the Z-LYTE panel (Homo sapiens, UniProt P45983), sequence (P45983 whole entry): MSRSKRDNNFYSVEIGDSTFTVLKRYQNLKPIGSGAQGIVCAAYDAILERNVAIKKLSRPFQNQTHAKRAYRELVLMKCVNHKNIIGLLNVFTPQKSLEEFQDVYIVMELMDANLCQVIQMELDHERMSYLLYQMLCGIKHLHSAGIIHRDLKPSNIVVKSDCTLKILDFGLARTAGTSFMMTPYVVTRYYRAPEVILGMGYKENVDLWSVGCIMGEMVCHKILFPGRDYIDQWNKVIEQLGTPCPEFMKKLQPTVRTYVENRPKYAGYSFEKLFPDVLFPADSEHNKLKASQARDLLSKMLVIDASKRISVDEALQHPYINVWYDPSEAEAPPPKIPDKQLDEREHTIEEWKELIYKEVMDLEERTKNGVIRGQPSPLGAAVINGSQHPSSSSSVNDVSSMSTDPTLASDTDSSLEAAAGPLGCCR
Description: as §1

[13] = target: protein kinases of the Z-LYTE panel (Homo sapiens, UniProt P07948)
Description: as §1

[14] = target: protein kinases of the Z-LYTE panel (Homo sapiens, UniProt P54756)
protein kinases of the Z-LYTE panel (Homo sapiens, UniProt P54756), sequence (P54756 25-1037): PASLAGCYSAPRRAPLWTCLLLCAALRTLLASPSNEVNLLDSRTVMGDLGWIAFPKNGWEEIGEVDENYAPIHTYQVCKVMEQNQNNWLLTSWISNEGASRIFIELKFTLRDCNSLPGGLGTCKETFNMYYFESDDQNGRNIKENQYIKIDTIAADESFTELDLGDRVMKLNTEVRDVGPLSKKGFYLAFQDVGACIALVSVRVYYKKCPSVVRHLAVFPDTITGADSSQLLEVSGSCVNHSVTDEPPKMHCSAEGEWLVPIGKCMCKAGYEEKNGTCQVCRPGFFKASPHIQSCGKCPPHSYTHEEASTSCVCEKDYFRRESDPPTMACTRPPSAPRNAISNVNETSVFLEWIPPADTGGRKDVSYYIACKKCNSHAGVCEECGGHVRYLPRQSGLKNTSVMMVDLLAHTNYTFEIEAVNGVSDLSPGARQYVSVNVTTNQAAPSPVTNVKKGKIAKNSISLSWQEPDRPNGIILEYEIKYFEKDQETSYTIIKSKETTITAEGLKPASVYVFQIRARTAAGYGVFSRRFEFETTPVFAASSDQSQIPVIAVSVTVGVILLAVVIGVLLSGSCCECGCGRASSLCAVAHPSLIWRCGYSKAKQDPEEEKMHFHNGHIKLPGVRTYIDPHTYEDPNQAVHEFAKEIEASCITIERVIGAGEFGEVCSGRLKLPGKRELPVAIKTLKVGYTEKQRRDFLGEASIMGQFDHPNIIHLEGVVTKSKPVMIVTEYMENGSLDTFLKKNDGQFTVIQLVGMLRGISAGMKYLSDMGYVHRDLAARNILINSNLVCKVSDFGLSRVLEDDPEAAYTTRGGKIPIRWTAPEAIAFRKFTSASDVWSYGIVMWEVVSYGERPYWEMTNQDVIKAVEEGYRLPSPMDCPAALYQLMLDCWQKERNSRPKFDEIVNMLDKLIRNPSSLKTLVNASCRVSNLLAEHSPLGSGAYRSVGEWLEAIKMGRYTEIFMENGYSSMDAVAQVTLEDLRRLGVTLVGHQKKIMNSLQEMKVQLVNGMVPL
Description: as §1

Structure (SMILES): CCN1CCN(c2ccc(Nc3cc(Nc4cccc5c4N(C(C)=O)CC5)ccn3)cc2)CC1 [Compound 1938]
- inhibition at 1 µM ([1]; read-out: % Inhibition Point 1): 2.18%
- inhibition at 1 µM ([1]; read-out: % Inhibition Point 2): 2.77%
- inhibition at 1 µM ([1]; read-out: % Inhibition mean): 2.48%
- inhibition at 1 µM ([2]; read-out: % Inhibition Point 1): 8.55%
- inhibition at 1 µM ([2]; read-out: % Inhibition Point 2): 8%
- inhibition at 1 µM ([2]; read-out: % Inhibition mean): 8%
- inhibition at 1 µM ([3]; read-out: % Inhibition Point 1): 10%
- inhibition at 1 µM ([3]; read-out: % Inhibition Point 2): 6.41%
- inhibition at 1 µM ([3]; read-out: % Inhibition mean): 8%
- inhibition at 1 µM ([4]; read-out: % Inhibition Point 1): 13%
- inhibition at 1 µM ([4]; read-out: % Inhibition Point 2): 12%
- inhibition at 1 µM ([4]; read-out: % Inhibition mean): 13%
- inhibition at 1 µM ([5]; read-out: % Inhibition Point 1): 16%
- inhibition at 1 µM ([5]; read-out: % Inhibition Point 2): 6.35%
- inhibition at 1 µM ([5]; read-out: % Inhibition mean): 11%
- inhibition at 1 µM ([6]; read-out: % Inhibition Point 1): 6%
- inhibition at 1 µM ([6]; read-out: % Inhibition Point 2): 5.47%
- inhibition at 1 µM ([6]; read-out: % Inhibition mean): 6%
- inhibition at 1 µM ([7]; read-out: % Inhibition Point 1): -0.368%
- inhibition at 1 µM ([7]; read-out: % Inhibition Point 2): 13%
- inhibition at 1 µM ([7]; read-out: % Inhibition mean): 6.48%
- inhibition at 1 µM ([8]; read-out: % Inhibition Point 1): 27%
- inhibition at 1 µM ([8]; read-out: % Inhibition Point 2): 30%
- inhibition at 1 µM ([8]; read-out: % Inhibition mean): 29%
- inhibition at 1 µM ([9]; read-out: % Inhibition Point 1): 4%
- inhibition at 1 µM ([9]; read-out: % Inhibition Point 2): 3.36%
- inhibition at 1 µM ([9]; read-out: % Inhibition mean): 3.61%
- inhibition at 1 µM ([10]; read-out: % Inhibition Point 1): 2.86%
- inhibition at 1 µM ([10]; read-out: % Inhibition Point 2): 3.28%
- inhibition at 1 µM ([10]; read-out: % Inhibition mean): 3%
- inhibition at 1 µM ([11]; read-out: % Inhibition Point 1): 25%
- inhibition at 1 µM ([11]; read-out: % Inhibition Point 2): 23%
- inhibition at 1 µM ([11]; read-out: % Inhibition mean): 24%
- inhibition at 1 µM ([12]; read-out: % Inhibition Point 1): 28%
- inhibition at 1 µM ([12]; read-out: % Inhibition Point 2): 32%
- inhibition at 1 µM ([12]; read-out: % Inhibition mean): 30%
- inhibition at 1 µM ([13]; read-out: % Inhibition Point 1): 11%
- inhibition at 1 µM ([13]; read-out: % Inhibition Point 2): 9%
- inhibition at 1 µM ([13]; read-out: % Inhibition mean): 10%
- inhibition at 1 µM ([14]; read-out: % Inhibition Point 1): 4.24%
- inhibition at 1 µM ([14]; read-out: % Inhibition Point 2): 1.52%
- inhibition at 1 µM ([14]; read-out: % Inhibition mean): 3%
